System: platelets
Procedure: Briefly, whole citrated blood is diluted 1:2 with sterile saline and placed in a warm chamber with a mini stir bar. An electronic probe, measuring electrical resistance, is inserted in the sample. The aggregometer is calibrated and the baseline is observed to detect any spontaneous aggregation. The test sample is added and allowed to run for at least 6 minutes. If the sample is an agonist the platelets will start to aggregate and stick to the electronic probe causing resistance across the electrodes to increase. This resistance, in ohms, is measured 6 minutes post addition of sample. The test samples are run at 25, 100, 200, 400 and 800 uM and compared to 100 uM L-ET-18-OCH3.
Collection of Blood Sample for in vitro Platelet Aggregation Testing: Venous blood is collected in 4.5 mL. Vacutainer tubes containing 0.129 M sodium citrate using a 21G needle or larger. Blood is immediately mixed by gentle inversion 15-20 times and kept at room temperature. Dilution ratio is 1 to 9 (3.8% citrate solution:blood). One (2.0 mL) Vacutainer tube containing EDTA is also collected for platelet counts. Complete blood counts (CBC) are measured on the CDC Technologies Hemavet 1500 to ensure that the test subject's platelets are within normal range. Any vials of hemolytic blood or blood containing any clots should be discarded. Platelet aggregation testing must be completed within 3 hours of blood collection. After this time the ability of platelets to aggregate decreases.
Cloudy solutions were warmed to ˜50° C. to dissolve and particles. Dilutions were prepared in PBS or saline at 40× concentration. (25 uL test sample are added to 1000 uL diluted blood (1:40)).

Compound | Relative Platelet Aggregation (Ohms) 25 μM [Ohms] | Relative Platelet Aggregation (Ohms) 100 μM [Ohms] | Relative Platelet Aggregation (Ohms) 200 μM [Ohms] | Platelet aggregation response (in words)
CCCCCCCCCCCCCCCCCCOCC(COP(=O)([O-])OCC[N+](C)(C)C)OC [D-ET18OCH3, 1-O-octadecyl-2-O-methyl-glycerophosphocholine] | 0 | 0 | 0 | 
CCCCCCCCCCCCCCCCCCOCC(COP(=O)([O-])OCC[N+](C)(C)C)OC [L-ET18OCH3, 1-O-octadecyl-2-O-methyl-glycerophosphocholine] | 13 | 14 | 12 | elicits a platelet aggregation response
